Test results reported in US7425579B2, “Methods for inhibiting activity of polyamine transporters” (Universite Laval, priority 1998, dated 2008).

Tested on: T-47D cells
Experiment: Effect of inhibitors on T-47D cell proliferation (DNA content)
Format: cell-based, human
Details: T-47D cells, 9 d
Protocol: FIGS. 3A and 3B are graphs showing the effect compounds used in a method according preferred embodiment of the present invention, on cell proliferation. In particular, they relate to the effect of selected BSD and BNSD derivatives on T-47D cell proliferation. Cells were incubated for 9 d with the indicated concentrations of BSD-2 (∘), BNSD-4 (●), BSD-4 (□), BNSD-6 (▪), BSD-10 (Δ), BSD-4-ene (▴) and BSD-4-yne (▾) in medium containing 1 mM aminoguanidine, and total DNA content per culture was then determined. B, Effect of BNSD-X (N,N,N′,N′-tetrakis-(3-aminopropyl)-p-diaminoxylene) on cell proliferation in various mammalian cell lines. Jurkat (∘), LAN-1 (●), L1210 (□), T-47D (▪), ZR-75-1 (Δ) and MDA-MB-231 (▴) cells were grown to near confluency or saturation (for 4 to 11 d according to the cell line considered) with the indicated concentrations of BNSD-X in the presence of 1 mM aminoguanidine, and total DNA content per culture was then determined. Data are given as the mean±SD for triplicate cultures from one out of at least two identical experiments;
FIGS. 4A and 4B are graphs showing how compounds used in a method according to a preferred embodiment are differentially sensitive to degradation by BSAO (bovine serum amine oxidase). In particular, T-47D cells were incubated for 9 d with the indicated concentrations of BSD-X (∘), BNSD-X (●), BSD-3 (□) or BNSD-3 (▪) in the absence (A) or presence of 1 mM aminoguanidine (B), and total DNA content per culture was then determined. Data are presented as the mean±SD for triplicate cultures from one representative experiment;
The effect of transport inhibitors on cell proliferation was evaluated by determination of cell number (L1210, Jurkat) using electronic sizing with a Model ZM Coulter counter (Coulter Electronics, Hialeah, Fla.), or DNA content per culture (for all other cell lines) with the 3,5-diaminobenzoic acid assay. […] Cytotoxicity of the inhibitors was determined in the presence or absence of aminoguanidine, and was confirmed by a trypan blue exclusion assay.

Structure (SMILES): NCCCN(CCCN)Cc1ccc(CN(CCCN)CCCN)cc1 [28a, N,N,N′,N′-tetrakis-(3-aminopropyl)-p-diaminoxylene]
- effect of aminoguanidine addition on the cytotoxicity of the dimer (1 mM aminoguanidine): abolished most of the cytotoxicity
- cytotoxicity in the absence of aminoguanidine (BSAO active): considerably more cytotoxic than their spermidine-like homologs
